Structures are written as SMILES. Active and inactive are the calls of the source.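 The calls were made as follows: active = inhibition of binding above 0%; inactive = the rest.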

The test system of the test is anti-Dsg3 scFv antibody binding to human desmoglein-3. The experiment in a line: blockers of Dsg3 recognition by pemphigus scFv, confirmation, orthogonal assay for pemphigus antibody inhibitor project, biochemical, ELISA (AID 624333). The settings on record: OD, at 200 µM, hits give high values. Background: ELISA stands for enzyme-linked immunosorbent assay.

For `CSc1ccccc1OCc1cc(C(=O)NCCC2=CCCCC2)no1`, the inhibition of binding was -14% (inactive).

`COc1ccccc1NC(=O)Cn1nnc(-c2ccccc2NC(=O)c2cc3ccccc3oc2=O)n1`: the inhibition of binding is -32% (inactive).

For the compound `CCOc1ccccc1NCc1cc(=O)oc2cc(C)c(O)cc12`, the inhibition of binding is -4% (inactive).

As for `CC(C)OC(=O)CSc1nc2c(cc1C#N)CCCCC2`, the inhibition of binding is -2% (inactive).

As to `COc1ccc(OC)c(NC(=O)c2nc(-c3ccccc3)oc2C)c1`, the inhibition of binding is -2% (inactive).

For `Cc1ccc(C(C)C)c(OCC(=O)Nc2ccc(N3CCN(S(C)(=O)=O)CC3)cc2)c1`, the inhibition of binding is -19% (inactive).

For `Cc1cc(SCC(=O)Nc2ccc3[nH]c(=O)[nH]c3c2)nc2ccccc12`, the inhibition of binding was 8%.

Turning to `Cn1c(SCC(=O)NC2CCCCC2)nnc1-c1cc2cc(Cl)ccc2o1`, the inhibition of binding was 0% (inactive).

`COc1cc(OC)cc(N(C(=O)C2COc3ccccc3O2)C(C(=O)NC2CCCCC2)c2ccc(O)cc2)c1` (centres undefined): the inhibition of binding was -3% (inactive).

Take `Cc1c(C(=O)Nc2ccc(OCc3ccccc3)cc2)cccc1[N+](=O)[O-]`: the inhibition of binding is -33% (inactive).

As for `CC(=O)Nc1ccc(-c2cc(-c3ccccc3)nc(-c3ccccc3)n2)cc1`, the inhibition of binding was 5%.

With `NS(=O)(=O)c1ccc(NC(=O)c2cc(-c3cccs3)nc3ccccc23)cc1`, the inhibition of binding is -18% (inactive).

Consider `CCc1ccc(OCC(=O)Nc2ccc(N3CCN(C(=O)c4ccccc4)CC3)cc2)cc1`, for which the inhibition of binding was -5% (inactive).

Regarding `OCc1cn(-c2ccccc2)nc1-c1ccc(-c2nn(-c3ccccc3)cc2CO)cc1`, the inhibition of binding was -14% (inactive).

For the origin of these results see PubChem BioAssay AID624333 (NMMLSC, 2012).
